Data on three compounds can be found in PMC8051587 (ACS chemical biology, 2020).

By EC50 is commonly meant the midpoint of the concentration-response curve. A word on the Kd: it is the concentration at which binding is half-saturated. The kon is the rate constant with which the complex forms. Broadly, the IC50 is the concentration that gives 50% inhibition.

The structures appear in SMILES notation. Several values for one entry are separate records, joined by “and”; a condition that tells them apart may be missing. Equal entries are not always repeated. Where two headings read alike, the source gives them in different places.

Test [1] has as its system A/WSN/33 M2 N31S virus. In kind it is cell-based, influenza A virus. As to conditions: for EC50: read-out: EC50 ± SD.
The subject of test [2] is A/WSN/33 virus (with naturally occurring M2 N31). Description: microbe, parasite or virus in culture. To be noted: for EC50: read-out: EC50 ± SD. In kind it is cell-based.
In test [3] the target is T1, full-length A/Udorn/72 M2 S31N (Influenza A virus, UniProt P0DOF5, S31N).
For test [4], the target named is T1, full-length A/Udorn/72 M2 S31N. To be noted: cited from earlier work.
Where [5] appears, read: CPE inhibition assay, MDCK cells, amantadine-resistant A/WSN/33 (M2 N31).

With `CCOC(=O)C1=C[C@@H](OC(CC)CC)[C@H](NC(C)=O)[C@@H](N)C1` [Oseltamivir], the half-maximal effective concentration (EC50) in test [1] came to 30 ± 20 nM; in test [2] (Influenza A virus, WSN, MDCK), 10 ± 10 nM.
Take `NC12CC3CC(CC(C3)C1)C2` [Amantadine, amantadine]: the EC50 in test [1] is 250 ± 70 nM. For the same compound, the “EC50 ± SD” value in test [2] (setting [5]) is reported as “not active”.
With `c1csc(-c2cc(CNC34CC5CC(CC(C5)C3)C4)on2)c1` [Compound 6], the “EC50 ± SD” value in test [1] was “not active”. Also, the EC50 in test [2] (setting [5]) was found to be 153 nM. Moreover, in test [3], the “Blockage Eliminated in Wash Out(%)” value is 6.8 ± 1.2%; the Kd amounted to 7500 ± 300 nM; the “Percent Block” value is 99.2% and 99 ± 1%; the association rate constant (kon) was found to be 2280 ± 150 M⁻¹ s⁻¹. Besides, in test [4] (read-out: IC50 in TEVC with M2 S31N, previously reported), the IC50 is 16000 nM. Also, the equilibrium dissociation constant (Kd) in test [4] (read-out: Kd (literature value, footnote g), footnote to the Kd value, ref [3]) is 16000 nM.
